Data reported in patent US10479780B2, “Aminopyrazole derivatives” (Chugai Seiyaku Kabushiki Kaisha, priority 2015, dated 2019).

How the values were obtained:
Assay type in all cases: biochemical
human Src enzyme = biological target: T1, human Src enzyme (Homo sapiens, UniProt P12931); test: Src enzyme inhibitory activity (time-resolved fluorometry, biotinylated peptide phosphorylation); conditions: biotinylated peptide phosphorylation, read-out: SRC_IC50
T1 construct: purchased Carna Biosciences, Inc. 08-173
T1 sequence (P12931 whole entry): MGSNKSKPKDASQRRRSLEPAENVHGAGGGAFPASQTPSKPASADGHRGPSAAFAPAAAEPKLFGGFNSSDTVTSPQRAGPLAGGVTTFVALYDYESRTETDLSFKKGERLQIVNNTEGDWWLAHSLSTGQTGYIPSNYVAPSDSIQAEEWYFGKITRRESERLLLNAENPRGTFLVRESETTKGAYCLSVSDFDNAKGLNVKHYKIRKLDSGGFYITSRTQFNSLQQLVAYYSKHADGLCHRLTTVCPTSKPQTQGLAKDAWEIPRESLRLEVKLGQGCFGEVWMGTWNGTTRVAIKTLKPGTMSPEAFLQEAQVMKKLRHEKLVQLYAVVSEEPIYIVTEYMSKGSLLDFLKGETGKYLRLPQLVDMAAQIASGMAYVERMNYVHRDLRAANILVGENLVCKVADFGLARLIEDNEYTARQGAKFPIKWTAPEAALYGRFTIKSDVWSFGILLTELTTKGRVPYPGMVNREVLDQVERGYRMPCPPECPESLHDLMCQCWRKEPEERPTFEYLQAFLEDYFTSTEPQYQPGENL
Summary of the method: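 Compounds were tested for blocking tyrosine phosphorylation of a biotinylated peptide substrate by recombinant human Src. Phosphorylated product was quantified by time-resolved fluorometry using europium cryptate and XL665 conjugates, and IC50 was calculated against the compound-free control.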

human Yes1 enzyme = biological target: T2, human Yes1 enzyme (Homo sapiens, UniProt P07947); test: Yes1 enzyme inhibitory activity (time-resolved fluorometry, biotinylated peptide phosphorylation); conditions: biotinylated peptide phosphorylation, read-out: YES_IC50
T2 construct: made in house
T2 sequence (P07947 whole entry): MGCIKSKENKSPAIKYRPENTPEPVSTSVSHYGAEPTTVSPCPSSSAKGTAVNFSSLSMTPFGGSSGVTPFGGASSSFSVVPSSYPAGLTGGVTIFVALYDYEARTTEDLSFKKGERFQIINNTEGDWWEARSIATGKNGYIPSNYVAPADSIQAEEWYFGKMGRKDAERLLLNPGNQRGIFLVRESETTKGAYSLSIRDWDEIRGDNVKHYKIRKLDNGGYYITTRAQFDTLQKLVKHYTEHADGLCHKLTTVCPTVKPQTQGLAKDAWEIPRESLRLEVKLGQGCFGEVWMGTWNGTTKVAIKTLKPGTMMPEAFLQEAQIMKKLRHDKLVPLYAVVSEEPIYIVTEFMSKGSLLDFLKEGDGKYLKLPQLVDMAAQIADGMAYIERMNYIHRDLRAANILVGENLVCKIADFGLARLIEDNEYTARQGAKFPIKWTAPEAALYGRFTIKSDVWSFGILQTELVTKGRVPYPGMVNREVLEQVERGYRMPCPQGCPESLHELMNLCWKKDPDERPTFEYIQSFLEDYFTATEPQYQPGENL
Summary of the method: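 Inhibition was expressed against a compound-free control to give IC50, using TR-FRET read-out (Eu-cryptate anti-pTyr antibody, streptavidin-XL665).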

human Lck enzyme = biological target: T3, human Lck enzyme (Homo sapiens, UniProt P06239); test: Lck enzyme inhibitory activity (time-resolved fluorometry, biotinylated peptide phosphorylation); conditions: biotinylated peptide phosphorylation, read-out: LCK_IC50
T3 construct: purchased Carna Biosciences, Inc. 08-170
T3 sequence (P06239 whole entry): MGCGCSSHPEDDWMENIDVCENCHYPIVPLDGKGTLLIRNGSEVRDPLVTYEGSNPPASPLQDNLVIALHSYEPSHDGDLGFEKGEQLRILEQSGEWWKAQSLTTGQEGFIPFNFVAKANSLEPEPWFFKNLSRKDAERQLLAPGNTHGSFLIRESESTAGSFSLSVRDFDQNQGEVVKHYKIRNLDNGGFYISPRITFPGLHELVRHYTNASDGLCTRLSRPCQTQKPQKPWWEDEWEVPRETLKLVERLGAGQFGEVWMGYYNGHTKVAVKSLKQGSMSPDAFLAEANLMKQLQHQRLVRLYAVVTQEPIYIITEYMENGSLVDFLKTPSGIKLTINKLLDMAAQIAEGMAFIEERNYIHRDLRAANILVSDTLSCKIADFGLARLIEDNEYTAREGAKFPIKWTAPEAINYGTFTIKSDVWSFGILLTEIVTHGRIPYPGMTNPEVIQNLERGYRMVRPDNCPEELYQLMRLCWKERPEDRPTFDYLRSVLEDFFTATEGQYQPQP
Summary of the method: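 Readout pairs a europium cryptate-labelled anti-phosphotyrosine antibody with XL665-streptavidin, measured by time-resolved fluorescence. IC50 derived from percent inhibition against untreated controls.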

| SMILES | IC50 (human Src enzyme) [nM] | IC50 (human Yes1 enzyme) [nM] | IC50 (human Lck enzyme) [nM] |
| --- | --- | --- | --- |
| Cc1cc2cc(C(=O)c3cnn(-c4c(C)cc(Oc5ccccc5F)cc4F)c3N)[nH]c2cc1NS(=O)(=O)CCCF [Example 4-2-070, N-[2-[5-amino-1-[2-fluoro-4-(2-fluorophenoxy)-6-methylphenyl]pyrazole-4-carbonyl]-5-methyl-1H-indol-6-yl]-3-fluoropropane-1-sulfonamide] | 140 | 7.6 | 47 |
| Cc1cc2cc(C(=O)c3cnn(-c4c(C)cc(Oc5cccc(F)c5F)cc4F)c3N)[nH]c2cc1NS(=O)(=O)CCCF [Example 4-2-071, N-[2-[5-amino-1-[4-(2,3-difluorophenoxy)-2-fluoro-6-methylphenyl]pyrazole-4-carbonyl]-5-methyl-1H-indol-6-yl]-3-fluoropropane-1-sulfonamide] | 160 | 12 | 78 |
| Cc1cc2cc(C(=O)c3cnn(-c4cnc(Oc5cccc(Cl)c5)cc4C)c3N)[nH]c2cc1NS(=O)(=O)CCCF [Example 4-2-075, N-[2-[5-amino-1-[6-(3-chlorophenoxy)-4-methylpyridin-3-yl]pyrazole-4-carbonyl]-5-methyl-1H-indol-6-yl]-3-fluoropropane-1-sulfonamide] | 170 | 10 | 110 |
| Cc1cc(Oc2cccc(F)c2F)cc(F)c1-n1ncc(C(=O)c2cc3cc(Cl)c(NS(C)(=O)=O)cc3[nH]2)c1N [Example 4-2-080, N-[2-[5-amino-1-[4-(2,3-difluorophenoxy)-2-fluoro-6-methylphenyl]pyrazole-4-carbonyl]-5-chloro-1H-indol-6-yl]methanesulfonamide] | 170 | 12 | 68 |
| Cc1cc(Oc2cc(F)ccc2F)cc(F)c1-n1ncc(C(=O)c2cc3cc(Cl)c(NS(C)(=O)=O)cc3[nH]2)c1N [Example 4-2-081, N-[2-[5-amino-1-[4-(2,5-difluorophenoxy)-2-fluoro-6-methylphenyl]pyrazole-4-carbonyl]-5-chloro-1H-indol-6-yl]methanesulfonamide] | 210 | 14 | 83 |
| Cc1cc(Oc2ccccc2Cl)cc(F)c1-n1ncc(C(=O)c2cc3cc(Cl)c(NS(C)(=O)=O)cc3[nH]2)c1N [Example 4-2-082, N-[2-[5-amino-1-[4-(2-chlorophenoxy)-2-fluoro-6-methylphenyl]pyrazole-4-carbonyl]-5-chloro-1H-indol-6-yl]methanesulfonamide] | 310 | 22 | 160 |
| Cc1cc(Oc2cccc(Cl)c2)cc(F)c1-n1ncc(C(=O)c2cc3cc(Cl)c(NS(C)(=O)=O)cc3[nH]2)c1N [Example 4-2-083, N-[2-[5-amino-1-[4-(3-chlorophenoxy)-2-fluoro-6-methylphenyl]pyrazole-4-carbonyl]-5-chloro-1H-indol-6-yl]methanesulfonamide] | 520 | 27 | 250 |
| Cc1cc(Oc2ccccc2)cc(F)c1-n1ncc(C(=O)c2cc3cc(Cl)c(NS(C)(=O)=O)cc3[nH]2)c1N [Example 4-2-084, N-[2-[5-amino-1-(2-fluoro-6-methyl-4-phenoxyphenyl)pyrazole-4-carbonyl]-5-chloro-1H-indol-6-yl]methanesulfonamide] | 160 | 6.3 | 73 |
| Cc1cc(Oc2cccc(F)c2F)ncc1-n1ncc(C(=O)c2cc3cc(Cl)c(NS(C)(=O)=O)cc3[nH]2)c1N [Example 4-2-087, N-[2-[5-amino-1-[6-(2,3-difluorophenoxy)-4-methylpyridin-3-yl]pyrazole-4-carbonyl]-5-chloro-1H-indol-6-yl]methanesulfonamide] | 220 | 2.7 | 55 |
| Cc1cc(Oc2ccccc2Cl)ncc1-n1ncc(C(=O)c2cc3cc(Cl)c(NS(C)(=O)=O)cc3[nH]2)c1N [Example 4-2-088, N-[2-[5-amino-1-[6-(2-chlorophenoxy)-4-methylpyridin-3-yl]pyrazole-4-carbonyl]-5-chloro-1H-indol-6-yl]methanesulfonamide] | 170 | 2.6 | 48 |
| Cc1cc(Oc2c(F)cccc2Cl)ncc1-n1ncc(C(=O)c2cc3cc(Cl)c(NS(C)(=O)=O)cc3[nH]2)c1N [Example 4-2-089, N-[2-[5-amino-1-[6-(2-chloro-6-fluorophenoxy)-4-methylpyridin-3-yl]pyrazole-4-carbonyl]-5-chloro-1H-indol-6-yl]methanesulfonamide] | 180 | 2.7 | 13 |
| Cc1cc(Oc2cccc(Cl)c2)ncc1-n1ncc(C(=O)c2cc3cc(Cl)c(NS(C)(=O)=O)cc3[nH]2)c1N [Example 4-2-091, N-[2-[5-amino-1-[6-(3-chlorophenoxy)-4-methylpyridin-3-yl]pyrazole-4-carbonyl]-5-chloro-1H-indol-6-yl]methanesulfonamide] | 350 | 9.7 | 140 |
| Cc1cc(Oc2ccc(F)cc2)ncc1-n1ncc(C(=O)c2cc3cc(Cl)c(NS(C)(=O)=O)cc3[nH]2)c1N [Example 4-2-092, N-[2-[5-amino-1-[6-(4-fluorophenoxy)-4-methylpyridin-3-yl]pyrazole-4-carbonyl]-5-chloro-1H-indol-6-yl]methanesulfonamide] | 270 | 19 | 78 |

Now those with a lower IC50 (human Src enzyme), led by results:

| IC50 (human Src enzyme) [nM] | IC50 (human Yes1 enzyme) [nM] | IC50 (human Lck enzyme) [nM] | SMILES |
| --- | --- | --- | --- |
| 130 | 18 | 62 | Cc1cc2cc(C(=O)c3cnn(-c4cnc(Oc5ccc(F)cc5)cc4C)c3N)[nH]c2cc1NS(=O)(=O)CCCF [Example 4-2-076, N-[2-[5-amino-1-[6-(4-fluorophenoxy)-4-methylpyridin-3-yl]pyrazole-4-carbonyl]-5-methyl-1H-indol-6-yl]-3-fluoropropane-1-sulfonamide] |
| 110 | 1.5 | 17 | Cc1ccccc1Oc1cc(C)c(-n2ncc(C(=O)c3cc4cc(Cl)c(NS(C)(=O)=O)cc4[nH]3)c2N)cn1 [Example 4-2-090, N-[2-[5-amino-1-[4-methyl-6-(2-methylphenoxy)pyridin-3-yl]pyrazole-4-carbonyl]-5-chloro-1H-indol-6-yl]methanesulfonamide] |
| 99 | 1.6 | 8.3 | Cc1cc(Oc2c(F)cccc2F)ncc1-n1ncc(C(=O)c2cc3cc(Cl)c(NS(C)(=O)=O)cc3[nH]2)c1N [Example 4-2-086, N-[2-[5-amino-1-[6-(2,6-difluorophenoxy)-4-methylpyridin-3-yl]pyrazole-4-carbonyl]-5-chloro-1H-indol-6-yl]methanesulfonamide] |
| 91 | 5.9 | 50 | Cc1cc(Oc2cccc(F)c2F)ccc1-n1ncc(C(=O)c2cc3cc(Cl)c(NS(C)(=O)=O)cc3[nH]2)c1N [Example 4-2-078, N-[2-[5-amino-1-[4-(2,3-difluorophenoxy)-2-methylphenyl]pyrazole-4-carbonyl]-5-chloro-1H-indol-6-yl]methanesulfonamide] |
| 88 | 1.8 | 20 | Cc1cc2cc(C(=O)c3cnn(-c4cnc(Oc5ccccc5F)cc4C)c3N)[nH]c2cc1NS(=O)(=O)CCCF [Example 4-2-072, N-[2-[5-amino-1-[6-(2-fluorophenoxy)-4-methylpyridin-3-yl]pyrazole-4-carbonyl]-5-methyl-1H-indol-6-yl]-3-fluoropropane-1-sulfonamide] |
| 71 | 2.7 | 27 | Cc1cc2cc(C(=O)c3cnn(-c4cnc(Oc5ccccc5Cl)cc4C)c3N)[nH]c2cc1NS(=O)(=O)CCCF [Example 4-2-074, N-[2-[5-amino-1-[6-(2-chlorophenoxy)-4-methylpyridin-3-yl]pyrazole-4-carbonyl]-5-methyl-1H-indol-6-yl]-3-fluoropropane-1-sulfonamide] |
| 66 | 2.6 | 24 | Cc1cc(Oc2ccccc2F)cc(F)c1-n1ncc(C(=O)c2cc3cc(Cl)c(NS(C)(=O)=O)cc3[nH]2)c1N [Example 4-2-079, N-[2-[5-amino-1-[2-fluoro-4-(2-fluorophenoxy)-6-methylphenyl]pyrazole-4-carbonyl]-5-chloro-1H-indol-6-yl]methanesulfonamide] |
| 51 | 0.81 | 7.6 | Cc1cc(Oc2ccccc2F)ncc1-n1ncc(C(=O)c2cc3cc(Cl)c(NS(C)(=O)=O)cc3[nH]2)c1N [Example 4-2-085, N-[2-[5-amino-1-[6-(2-fluorophenoxy)-4-methylpyridin-3-yl]pyrazole-4-carbonyl]-5-chloro-1H-indol-6-yl]methanesulfonamide] |
| 37 | 3.1 | 19 | Cc1cc2cc(C(=O)c3cnn(-c4cnc(Oc5c(F)cccc5F)cc4C)c3N)[nH]c2cc1NS(=O)(=O)CCCF [Example 4-2-073, N-[2-[5-amino-1-[6-(2,6-difluorophenoxy)-4-methylpyridin-3-yl]pyrazole-4-carbonyl]-5-methyl-1H-indol-6-yl]-3-fluoropropane-1-sulfonamide] |
| 25 | 0.64 | 4.3 | Cc1cc(Oc2ccccc2F)ccc1-n1ncc(C(=O)c2cc3cc(Cl)c(NS(C)(=O)=O)cc3[nH]2)c1N [Example 4-2-077, N-[2-[5-amino-1-[4-(2-fluorophenoxy)-2-methylphenyl]pyrazole-4-carbonyl]-5-chloro-1H-indol-6-yl]methanesulfonamide] |
